Experiments:
hepatic tumors = settings: high concentration; chronic toxicology study; cited from earlier work
MT2 receptors = molecular target: T1, MT2 receptors (Homo sapiens, UniProt P49286); settings: relative to parent drug; cited from earlier work
T1 sequence (P49286 1-362): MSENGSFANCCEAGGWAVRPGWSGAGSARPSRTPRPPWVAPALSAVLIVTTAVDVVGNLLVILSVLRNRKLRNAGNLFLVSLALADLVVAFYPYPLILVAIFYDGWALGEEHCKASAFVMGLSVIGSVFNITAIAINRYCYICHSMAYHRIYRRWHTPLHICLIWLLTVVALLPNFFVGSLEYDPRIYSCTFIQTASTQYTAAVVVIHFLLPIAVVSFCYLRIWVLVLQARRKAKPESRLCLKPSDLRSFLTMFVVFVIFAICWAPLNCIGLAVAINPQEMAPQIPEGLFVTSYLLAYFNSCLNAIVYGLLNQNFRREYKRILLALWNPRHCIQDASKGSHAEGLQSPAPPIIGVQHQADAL

MT1 receptors = MT1 receptors (Homo sapiens, UniProt P48039); settings: relative to parent drug; cited from earlier work
[1] = tested on: other CNS receptors associated with sedation (e.g., GABA, dopamine, opiate, serotonin); settings: cited from earlier work
[2] = cited from earlier work
[3] = Pharmacokinetics of ramelteon after nasal and oral administration; set-up: species or system SD rats; settings: Sprague-Dawley (SD), rat, in vivo
Description: The objective was to study the pharmacokinetics of Ramelteon by determining the plasma concentrations after oral and intranasal administration. SD rats (n=3-4 for each dose) received an intranasal dose (0.1 mg/animal) of nasal solution composition (RNS-01, 2.5 mg/mL) which was prepared according to the EXAMPLE 1 of this invention, and an oral dose (0.1 mg/animal) of […] oral solution (ROS-01) which was prepared by directly dissolving ramelteon into saline solution to the final concentration of 0.1 mg/mL. Multiple blood samples were collected from tail vein until 6 hrs. Ramelteon concentration in rat plasma was determined using a validated LC/MS/MS method. The standard non-compartmental method was used to generate the pharmacokinetic parameters.

Caco-2 monolayer = experiment: Permeability through Caco-2 monolayer; assay type: in vitro ADME; settings: in vitro

Chain of MT1 receptors (P48039 whole entry): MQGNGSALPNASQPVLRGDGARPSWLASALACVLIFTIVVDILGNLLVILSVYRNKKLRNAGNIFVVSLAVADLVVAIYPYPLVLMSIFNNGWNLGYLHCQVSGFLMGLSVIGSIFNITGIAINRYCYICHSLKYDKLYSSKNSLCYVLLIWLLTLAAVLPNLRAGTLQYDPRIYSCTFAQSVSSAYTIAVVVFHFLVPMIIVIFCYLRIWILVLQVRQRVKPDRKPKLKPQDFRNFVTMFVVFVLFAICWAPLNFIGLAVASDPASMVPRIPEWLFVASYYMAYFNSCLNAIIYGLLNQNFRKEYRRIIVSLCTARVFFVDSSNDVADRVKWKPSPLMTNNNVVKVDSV

Q: With `CC(O)C(=O)NCCC1CCc2ccc3c(c21)CCO3` (centres unmarked) [M-II] as the compound, how does the “incidence of hepatic tumors” value (hepatic tumors) read?
A: Its value is “increase the incidence of hepatic tumors”.

Q: And the “binding affinity for MT2 receptor relative to ramelteon” value (MT2 receptors)?
A: The value was “one-fifth”.

Q: What about the “binding affinity for MT1 receptor relative to ramelteon” value (MT1 receptors) of the same compound?
A: Its value is “about one-tenth”.

Q: With `CCC(=O)NCC[C@@H]1CCc2ccc3c(c21)CCO3` [ramelteon] as the compound, how does the “affinity for other CNS receptors” value [1] read?
A: The value was “no affinity”.

Q: What about the “increase of systemic exposure (AUC) after co-administration of fluvoxamine” value ([2]; fluvoxamine, a strong CYP1A2 inhibitor) of the same compound?
A: The value was “approximately 190 fold”.

Q: What about the inter-subject variability ([2]; oral ramelteon) of the same compound?
A: Its inter-subject variability is “up to 100%”.

Q: And the “improvement of bioavailability, intranasal versus oral solution of same dose” value [3]?
A: Its value is “over 20 fold”.

Q: What about the “permeability through Caco-2 monolayer” value (Caco-2 monolayer) of the same compound?
A: Its value is “high permeability”.

— patent publication US20210113456A1, “PHARMACEUTICAL COMPOSITIONS OF RAMELTEON AND METHODS OF USE THEREOF” (MAXINASE LIFE SCIENCES LIMITED, priority 2017, published 2021)
